Assay results from patent US20230220010A1, “BROAD-SPECTRUM ANTIVIRAL PEPTIDES” (priority 2020, published 2023).
Entries after “also recorded” stand apart in the source; their conditions may differ. Square brackets hold non-standard residues; d marks the D form. Ends that are not written are not given here. Peptide text beside a SMILES is read from it.

What was measured:
HEK cells [1] = assay: Cytotoxicity assay, ALAMARBLUE, HEK cells; details: HEK cells with or without LASVpv, ALAMARBLUE
[2] = Cytotoxicity assay, ALAMARBLUE, HEK cells
[3] = tested on: Lassa pseudovirus (LASVpv); details: for EC50: 72 h
H3N2 influenza virus = details: for EC50: influenza virus
Vero E6 cells = assay: Cytotoxicity assay, CELLTITER-GLO, Vero E6 cells; details: peptide concentrations at or below 2 μM, about 72 hours
HEK cells [4] = assay: Cytotoxicity with varying cell densities, HEK cells; details: 5×10^3 to 1×10^5 cells/well
HEK cells [5] = assay: Cytotoxicity with varying serum (FBS) concentrations, HEK cells; details: for effect of serum concentration on cytotoxicity: 0-50% FBS
dengue virus type 2 = details: read-out: EC50 against dengue virus (DENV); plaque assay
HEK 293T/17 cells = assay: Cytotoxicity assay, CELLTITER-GLO, HEK cells; details: for cell viability, HEK 293T/17 cells: peptide concentrations approximately below 4 μM, about 72 hours; for cytotoxicity against HEK cells: CELLTITER-GLO, 3 days
human adenovirus 5 = details: read-out: EC50 against adenovirus (AdV); plaque assay
[6] = tested on: Lassa pseudovirus (LASVpv); details: 1 h, 50 μM

| Molecule | EC50 [2] | EC50 [3] | EC50 (H3N2 influenza virus) | other results |
| --- | --- | --- | --- | --- |
| RRGWNLALTLTYGRR-NH2 [*NATT*, RRGWNLALTLTYGRR] | 43 µM | 1.2 µM | 0.7 µM | cell viability in the presence and absence of virus (HEK cells [1]): no difference |
| RRGFSLKLLLSYRGWALLRLGYGRR-NH2 [IT1-a] | 19 µM | 1.6 µM | 1.6 µM | cell viability in the presence and absence of virus (HEK cells [1]): varies in the presence and absence of virus |
| RRGWLLLRLLLWGRR-NH2 [TL3, RRGWLLLRLLLWGRR] |  |  |  | cell viability, Vero E6 cells (Vero E6 cells): High cell viability; effect of cell density on cytotoxicity (HEK cells [4]): increases as cell density increases; cytotoxicity in 0% FBS (HEK cells [5]): does display cytotoxicity; cytotoxicity in 10%, 25%, and 50% FBS (HEK cells [5]): completely noncytotoxic |
| RRGFSLKLALLKDGWLLLRLGYGRR-NH2 [IT1-b] | > 75 µM | 1.4 µM | 2.3 µM | cell viability, Vero E6 cells (Vero E6 cells): High cell viability; effect of cell density on cytotoxicity (HEK cells [4]): remained consistent as cell density increases; EC50 (dengue virus type 2): 0.225 µM; cell viability in the presence and absence of virus (HEK cells [1]): varies in the presence and absence of virus; effect of serum concentration on cytotoxicity (HEK cells [5]): far less cytotoxic as serum concentration increases |
| CC(C)C[C@@H](NC(=O)[C@@H](Cc1c[nH]c2ccccc12)NC(=O)[C@@H](CCCNC(=N)N)NC(=O)[C@H](N)CCCNC(=N)N)C(=O)N[C@H](CC(C)C)C(=O)N[C@H](CC(C)C)C(=O)N[C@H](CC(C)C)C(=O)N[C@H](CC(N)=O)C(=O)N[C@H](CC(C)C)C(=O)N[C@H](CC(C)C)C(=O)N[C@H](CC(C)C)C(=O)N[C@H](CC(C)C)C(=O)N[C@H](Cc1c[nH]c2ccccc12)C(=O)N[C@H](CCCNC(=N)N)C(=O)N[C@H](CCCNC(=N)N)C(N)=O [D-TL4NdG, rrwllllnllllwrr] (H-[dR][dR][dW][dL][dL][dL][dL][dN][dL][dL][dL][dL][dW][dR][dR]-NH2) |  |  |  | cell viability, HEK 293T/17 cells (HEK 293T/17 cells): high cell viability |
| RRGFSLKLALLKDGWLLLLRLGYGRR-NH2 [IT1-f] | 20 µM | 1.1 µM | 1.5 µM |  |
| GIGAVLKGLATGLPAGISWIKQQAQL-NH2 [MelN4, reference compound] | > 100 µM | > 100 µM |  |  |
| RRGWALRLVLAY-NH2 [*ARVA, RRGWALRLVLAY] | > 75 µM | 6.2 µM | 0.9 µM |  |
| RRGWTLNLTLNYGRR-NH2 [*TNTN*, RRGWTLNLTLNYGRR] | 22 µM | 1.1 µM | 6.1 µM |  |
| RRGWLLLLNLLLLWGRR-NH2 [TL4N, RRGWLLLLNLLLLWGRR] |  |  |  | CC50 compared to IT1b (HEK 293T/17 cells; % greater than that of IT1b, HEK cells): over 500%; cytotoxicity against HEK cells (HEK 293T/17 cells): much less cytotoxic than TL3 |
| CC[C@H](C)[C@H](NC(=O)CN)C(=O)NCC(=O)N[C@@H](C)C(=O)N[C@H](C(=O)N[C@@H](CC(C)C)C(=O)N[C@@H](CCCCN)C(=O)N[C@H](C(=O)N[C@@H](CC(C)C)C(=O)N[C@H](C(=O)N[C@H](C(=O)NCC(=O)N[C@@H](CC(C)C)C(=O)N1CCC[C@H]1C(=O)N[C@@H](C)C(=O)NCC(=O)N[C@H](C(=O)N[C@@H](CO)C(=O)N[C@@H](Cc1c[nH]c2ccccc12)C(=O)N[C@H](C(=O)N[C@@H](CCCCN)C(=O)N[C@@H](CCCNC(=N)N)C(=O)N[C@@H](CCCCN)C(=O)N[C@@H](CCCNC(=N)N)C(=O)N[C@@H](CCC(N)=O)C(=O)N[C@@H](CCC(N)=O)C(N)=O)[C@@H](C)CC)[C@@H](C)CC)[C@@H](C)O)[C@@H](C)O)C(C)C)C(C)C [Mel-L16G, reference compound] | 21 µM | 28 µM |  |  |
| KLALLKDGWLLLR [Mid-Cat] |  |  |  | antiviral activity against LASVpv [3]: moderate potency |
| RRWLLLLNLLLLWRR-NH2 [TL4NdG, RRWLLLLNLLLLWRR] |  |  |  | cell viability, Vero E6 cells (Vero E6 cells): High cell viability; cytotoxicity against HEK cells (HEK 293T/17 cells): least cytotoxic test peptide; also recorded: much less cytotoxic than TL3; also recorded: least cytotoxic peptide tested; effect of cell density on cytotoxicity (HEK cells [4]): remained consistent as cell density increases; EC50 (human adenovirus 5): > 10 µM; effect of serum concentration on cytotoxicity (HEK cells [5]): essentially unchanged by serum concentration; inhibition of LASVpv at 50 μM peptide [6]: greater than 50% |
| CC(C)C[C@@H](NC(=O)[C@@H](C)NC(=O)[C@@H](CC(C)C)NC(=O)[C@@H](CCCCN)NC(=O)[C@@H](CC(C)C)NC(=O)[C@@H](CO)NC(=O)[C@@H](Cc1ccccc1)NC(=O)CNC(=O)[C@@H](CCCNC(=N)N)NC(=O)[C@H](N)CCCNC(=N)N)C(=O)N[C@H](CC(C)C)C(=O)N[C@H](CCCCN)C(=O)N[C@H](CC(=O)O)C(=O)NCC(=O)N[C@H](Cc1c[nH]c2ccccc12)C(=O)N[C@H](CC(C)C)C(=O)N[C@H](CC(C)C)C(=O)N[C@H](CC(C)C)C(=O)N[C@H](CCCNC(=N)N)C(=O)N[C@H](CC(C)C)C(=O)NCC(=O)N[C@H](Cc1ccc(O)cc1)C(=O)NCC(=O)N[C@H](CCCNC(=N)N)C(=O)N[C@H](CCCNC(=N)N)C(N)=O [D-IT1b, rrgfslklallkdgwlllrlgygrr] (H-[dR][dR]G[dF][dS][dL][dK][dL][dA][dL][dL][dK][dD]G[dW][dL][dL][dL][dR][dL]G[dY]G[dR][dR]-NH2) |  |  |  | cell viability, HEK 293T/17 cells (HEK 293T/17 cells): high cell viability |
| RRGWNLRLRLVYGRR-NH2 [*NRRV*, RRGWNLRLRLVYGRR] | 15 µM |  | 8 µM |  |
| LALLKDGWLLL [Mid] |  |  |  | antiviral activity against LASVpv [3]: no antiviral activity |

| Molecule | EC50 [2] | EC50 [3] | EC50 (H3N2 influenza virus) | other results |
| --- | --- | --- | --- | --- |
| CC(C)C[C@@H](NC(=O)[C@@H](Cc1c[nH]c2ccccc12)NC(=O)CNC(=O)[C@@H](CCCNC(=N)N)NC(=O)[C@H](N)CCCNC(=N)N)C(=O)N[C@H](CC(C)C)C(=O)N[C@H](CC(C)C)C(=O)N[C@H](CCCNC(=N)N)C(=O)N[C@H](CC(C)C)C(=O)N[C@H](CC(C)C)C(=O)N[C@H](CCCNC(=N)N)C(=O)N[C@H](CC(C)C)C(=O)N[C@H](CC(C)C)C(=O)N[C@H](CC(C)C)C(=O)N[C@H](CCCNC(=N)N)C(=O)N[C@H](CC(C)C)C(=O)N[C@H](CC(C)C)C(=O)N[C@H](Cc1c[nH]c2ccccc12)C(=O)NCC(=O)N[C@H](CCCNC(=N)N)C(=O)N[C@H](CCCNC(=N)N)C(N)=O [D-AHR, rrgwlllrllrlllrllwgrr] (H-[dR][dR]G[dW][dL][dL][dL][dR][dL][dL][dR][dL][dL][dL][dR][dL][dL][dW]G[dR][dR]-NH2) |  |  |  | cell viability, HEK 293T/17 cells (HEK 293T/17 cells): high cell viability |
| RRGWALRLNLYYGRR-NH2 [*ARNY*, RRGWALRLNLYYGRR] | > 100 µM | 2.2 µM | 4.5 µM | cell viability in the presence and absence of virus (HEK cells [1]): no difference |
| RRGWGLRLVLYYGRR-NH2 [*GRVY*, RRGWGLRLVLYYGRR] |  | 2.1 µM | 9.1 µM |  |
| KDGWLLLRLGYGRR [Cterm-Cat] |  |  |  | antiviral activity against LASVpv [3]: next most active peptide |
| PLZYLRLLRGQF [TP2, reference compound] |  |  |  | activity against H3N2 (H3N2 influenza virus): some antiviral activity |
| RRGWVLDLVLYYGRR-NH2 [*VDVY*, RRGWVLDLVLYYGRR] | > 100 µM | 5 µM | 12 µM |  |
| RRGWRLNLNLYYGRR-NH2 [*RNNY*, RRGWRLNLNLYYGRR] | 19 µM | 2.1 µM | 2.3 µM |  |
| RRGFSLKLKLLYRGWALALRLGYGRR-NH2 [IT1-e] | > 50 µM | 1.2 µM | 0.6 µM |  |
| RRGFSLKLRLLYRGWGLALRLGYGRR-NH2 [IT1-d] | > 100 µM | 1.3 µM | 0.4 µM |  |
| CC(C)C[C@@H](NC(=O)[C@@H](Cc1c[nH]c2ccccc12)NC(=O)CNC(=O)[C@@H](CCCNC(=N)N)NC(=O)[C@H](N)CCCNC(=N)N)C(=O)N[C@H](CC(C)C)C(=O)N[C@H](CC(C)C)C(=O)N[C@H](CCCNC(=N)N)C(=O)N[C@H](CC(C)C)C(=O)N[C@H](CC(C)C)C(=O)N[C@H](CC(C)C)C(=O)N[C@H](Cc1c[nH]c2ccccc12)C(=O)NCC(=O)N[C@H](CCCNC(=N)N)C(=O)N[C@H](CCCNC(=N)N)C(N)=O [D-TL3, rrgwlllrlllwgrr] (H-[dR][dR]G[dW][dL][dL][dL][dR][dL][dL][dL][dW]G[dR][dR]-NH2) |  |  |  | cell viability, HEK 293T/17 cells (HEK 293T/17 cells): high cell viability |
| WVLVLRLGY-NH2 [VVRG, WVLVLRLGY] |  |  | 6.1 µM |  |
| CC(C)C[C@@H](NC(=O)[C@@H](C)NC(=O)[C@@H](Cc1c[nH]c2ccccc12)NC(=O)CNC(=O)[C@@H](CCCNC(=N)N)NC(=O)[C@H](N)CCCNC(=N)N)C(=O)N[C@H](CCCNC(=N)N)C(=O)N[C@H](CC(C)C)C(=O)N[C@@H](C(=O)N[C@H](CC(C)C)C(=O)N[C@H](C)C(=O)N[C@H](Cc1ccc(O)cc1)C(N)=O)C(C)C [*arva] (H-[dR][dR]G[dW][dA][dL][dR][dL][dV][dL][dA][dY]-NH2) |  |  | 0.4 µM |  |
| WALRLYLGVY-NH2 [ARYV, WALRLYLGVY] |  | 7.9 µM | 3.7 µM |  |
| RRWLLLLRLLLLWRR-NH2 [TL4dG, RRWLLLLRLLLLWRR] |  |  |  | cytotoxicity against HEK cells (HEK 293T/17 cells): less cytotoxic than TL3 |
| RRRRRRRRRWC-NH2 [Arg9, RRRRRRRRRWC, reference compound] | > 75 µM | > 100 µM | 6.7 µM |  |
| RRGFSLKLALLYRGWLLLLRLGYGRR-NH2 [IT1-c] |  |  | 1.2 µM |  |
